Assay results from patent publication US11401271B2, “Fused heterocyclic compound, pyrazole-ring-containing fused heterocyclic compound, agricultural composition containing thereof, and method of using the composition” (SOUTH CHINA AGRICULTURAL UNIVERSITY, priority 2017, dated 2022).
Read-outs that look alike come from different tables or passages of the source.

Key:
Type in all cases: in vivo
Apis cernan = assay: Toxicity test on adult worker bees of Apis cernan, small beaker method; conditions: 500 ppm, 48 hours
Procedure, shortened: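 Same-size adult Apis cernan workers, collected the test morning, exposed in groups of 15 to cotton soaked with 500 ppm test liquid (small beaker method). Kept sealed in a dark climate box; live and dead bees counted after 48 h.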

Spodoptera exigua = assay: whole plant or invertebrate; conditions: Spodoptera exigua, read-out: Spodoptera exigua Mortality (%) 500 ppm
Procedure, shortened: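 Cabbage leaf discs dipped 5 s in 500 ppm compound (0.05% Tween-80 aqueous), air-dried, fed to about 35 2nd-instar larvae at 28° C, three replicates. Deaths counted at 24 h; mortality corrected against Tween-80 control.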

Solenopsis invicta = assay: whole plant or invertebrate; conditions: Solenopsis invicta, water test tube poison-feeding
Procedure, shortened: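 Fire ants fed compound by water test-tube poison-feeding at 100 ppm in aqueous 0.05% Tween-80/5% honey (from 10 g/L DMSO stock), kept at 25 °C. Live and dead ants counted at 24 and 72 h; mortality (%) calculated relative to live ants in the untreated control.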

Bombyx mori L. = assay: Toxicity test on 2nd-instar larvae of Bombyx mori L., leaf immersion feeding method; conditions: 1000 ppm, 24 hours
Procedure, shortened: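 Second-instar silkworm larvae (~35 per vessel, 3 replicates) fed mulberry leaves dipped 5 s in 1000 ppm compound (0.05% Tween-80; DMSO stock diluted), held at 25 °C. Deaths counted after 24 hours; mortality % corrected against Tween-80 control survivors.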

Plutella xylostella = assay: whole plant or invertebrate; conditions: Plutella xylostella, read-out: Plutella xylostella Mortality (%) 500 ppm
Procedure, shortened: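 Cabbage leaf discs dipped 5 s in compound at 500 ppm (0.05% Tween-80 aqueous), air-dried, fed to about 35 2nd-instar larvae at 28° C., triplicate. Dead larvae counted after 24 h; mortality (%) corrected against Tween-80 control.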

Aphis craccivora = assay: whole plant or invertebrate; conditions: Aphis craccivora, read-out: Aphis craccivora Mortality (%) 500 ppm
Procedure, shortened: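 Wingless adults feeding on bean sprouts were dipped with the sprouts for 5 s in 500 ppm compound in aqueous 0.05% Tween-80, air-dried, then held at 23° C. Dead aphids counted after 24 h, triplicate, with 0.05% Tween-80 as control. Mortality (%) = (control live − treated live)/control live × 100.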

[1] = 24 h, read-out: Solenopsis invicta Mortality (%) 100 ppm 24 h, 100 ppm, 24 h
[2] = 72 h, read-out: Solenopsis invicta Mortality (%) 100 ppm 72 h, 100 ppm, 72 h

Compound | Toxicity determination Apis cernan Mortality (%) (Apis cernan) | mortality at 500 ppm (Spodoptera exigua; 500 ppm, 2nd-instar larvae, leaf immersion feeding, 24 hours) | mortality at 100 ppm (Solenopsis invicta; 24 h, 100 ppm, 24 h, read-out: Solenopsis invicta Mortality (%) 100 ppm 24 h) | mortality at 100 ppm (Solenopsis invicta; 72 h, 100 ppm, 72 h, read-out: Solenopsis invicta Mortality (%) 100 ppm 72 h) | Toxicity determination Bombyx mori L. Mortality (%) (Bombyx mori L.) | mortality at 500 ppm (Plutella xylostella; 500 ppm, 2nd-instar larvae, leaf immersion feeding) | mortality at 500 ppm (Aphis craccivora; 500 ppm, wingless adults, impregnation method, 24 hours) | mortality at 500 ppm (Spodoptera exigua; 24 h) | mortality at 100 ppm (Solenopsis invicta; [1]) | mortality at 100 ppm (Solenopsis invicta; [2]) | mortality at 500 ppm (Plutella xylostella) | mortality at 500 ppm (Aphis craccivora; 24 h)
COC(=O)Nc1ccc2c(c1)-n1cc(C#N)c(C#N)c1NC2(C#N)C#N [Compound B11] | 3% | 100% | 33% | 95% | 7% | 100% | 100% |  |  |  |  | 
CC1(C)Nc2c([N+](=O)[O-])c(C#N)nn2-c2ccccc21 [Compound A21] | 6% |  |  |  | 0% |  |  | 100% | 24% | 100% | 100% | 100%
CSc1nn2c(c1C(=O)N1CCN(C)CC1)NC(F)(C(F)(F)F)c1ccccc1-2 (stereo not shown) [Compound A30] | 8% |  |  |  | 8% |  |  | 100% | 40% | 100% | 100% | 100%
Nc1ccc2c(c1)-n1nc(C(F)(F)F)cc1NC2(C(F)(F)F)C(F)(F)F [Compound A10] | 12% |  |  |  | 15% |  |  | 100% | 20% | 87% | 86% | 100%
